≈ marks a conversion by molar mass, not a printed value.
Assays:
Format in all cases: functional
Bacillus subtilis [1] = test: Antibacterial activity against Bacillus subtilis MTCC 441 after 24 to 48 hr by tube dilution method
Escherichia coli [2] = test: Antibacterial activity against Escherichia coli MTCC 1573 at 1250 ug/ml after 48 hr by cup-plate method; settings: MTCC 1573, 48 h, read-out: DIZ
Pseudomonas aeruginosa [3] = test: Antibacterial activity against Pseudomonas aeruginosa MTCC 424 at 1250 ug/ml after 48 hr by cup-plate method; settings: MTCC 424, 48 h, read-out: DIZ
Bacillus subtilis [4] = test: Antibacterial activity against Bacillus subtilis MTCC 441 at 100 ug/ml after 48 hr by cup-plate method; settings: MTCC 441, 48 h, read-out: DIZ
Micrococcus luteus [5] = test: Antibacterial activity against Micrococcus luteus MTCC 1538 at 100 ug/ml after 48 hr by cup-plate method; settings: MTCC 1538, 48 h, read-out: DIZ
Penicillium chrysogenum [6] = test: Antifungal activity against Penicillium chrysogenum MTCC 161 at 250 ug/ml after 48 hr by cup-plate method; settings: MTCC 161, 48 h, read-out: DIZ
Micrococcus luteus [7] = test: Antibacterial activity against Micrococcus luteus MTCC 1538 at 250 ug/ml after 48 hr by cup-plate method; settings: MTCC 1538, 48 h, read-out: DIZ
Pseudomonas aeruginosa [8] = test: Antibacterial activity against Pseudomonas aeruginosa MTCC 424 at 1000 ug/ml after 48 hr by cup-plate method; settings: MTCC 424, 48 h, read-out: DIZ
Bacillus pumilus = test: Antibacterial activity against Bacillus pumilus MTCC 1456 at 1250 ug/ml after 48 hr by cup-plate method; settings: MTCC 1456, 48 h, read-out: DIZ
Bacillus subtilis [9] = test: Antibacterial activity against Bacillus subtilis MTCC 441 at 500 ug/ml after 48 hr by cup-plate method; settings: MTCC 441, 48 h, read-out: DIZ
Staphylococcus aureus [10] = test: Antibacterial activity against Staphylococcus aureus MTCC 1430 at 1250 ug/ml after 48 hr by cup-plate method; settings: MTCC 1430, 48 h, read-out: DIZ
Escherichia coli [11] = test: Antibacterial activity against Escherichia coli MTCC 1573 at 500 ug/ml after 48 hr by cup-plate method; settings: MTCC 1573, 48 h, read-out: DIZ
Micrococcus luteus [12] = test: Antibacterial activity against Micrococcus luteus MTCC 1538 at 500 ug/ml after 48 hr by cup-plate method; settings: MTCC 1538, 48 h, read-out: DIZ
Aspergillus niger [13] = test: Antifungal activity against Aspergillus niger MTCC 2546 at 100 ug/ml after 48 hr by cup-plate method; settings: MTCC 2546, 48 h, read-out: DIZ
Staphylococcus aureus [14] = test: Antibacterial activity against Staphylococcus aureus MTCC 1430 at 100 ug/ml after 48 hr by cup-plate method; settings: MTCC 1430, 48 h, read-out: DIZ
Aspergillus niger [15] = test: Antifungal activity against Aspergillus niger MTCC 2546 at 1250 ug/ml after 48 hr by cup-plate method; settings: MTCC 2546, 48 h, read-out: DIZ
Penicillium chrysogenum [16] = test: Antifungal activity against Penicillium chrysogenum MTCC 161 at 1000 ug/ml after 48 hr by cup-plate method; settings: MTCC 161, 48 h, read-out: DIZ

MIC (Bacillus subtilis [1]) | SMILES | zone of inhibition at 1250 µg/mL (Escherichia coli [2]) | zone of inhibition at 1250 µg/mL (Pseudomonas aeruginosa [3]) | zone of inhibition at 100 µg/mL (Bacillus subtilis [4]) | zone of inhibition at 100 µg/mL (Micrococcus luteus [5]) | zone of inhibition at 250 µg/mL (Penicillium chrysogenum [6]) | zone of inhibition at 250 µg/mL (Micrococcus luteus [7]) | zone of inhibition at 1000 µg/mL (Pseudomonas aeruginosa [8]) | zone of inhibition at 1250 µg/mL (Bacillus pumilus) | zone of inhibition at 500 µg/mL (Bacillus subtilis [9]) | zone of inhibition at 1250 µg/mL (Staphylococcus aureus [10]) | zone of inhibition at 500 µg/mL (Escherichia coli [11]) | zone of inhibition at 500 µg/mL (Micrococcus luteus [12]) | zone of inhibition at 100 µg/mL (Aspergillus niger [13]) | zone of inhibition at 100 µg/mL (Staphylococcus aureus [14]) | zone of inhibition at 1250 µg/mL (Aspergillus niger [15]) | zone of inhibition at 1000 µg/mL (Penicillium chrysogenum [16])
50 µg/mL (≈ 127 µM) | O=[N+]([O-])c1ccc(C2CC(c3cccc4ccccc34)=NN2c2ccccc2)cc1 (configuration not stated) | 18 mm | 20 mm | 12 mm | – | 12 mm | 8 mm | 17 mm | 18 mm | 15 mm | 18 mm | 11 mm | 9 mm | 10 mm | – | 23 mm | 16 mm
19 µg/mL (≈ 43.3 µM) | O=[N+]([O-])c1ccc(C2CC(c3cccc4ccccc34)=NN2c2ccccc2[N+](=O)[O-])cc1 (configuration not stated) | 20 mm | 18 mm | 12 mm | – | 14 mm | 8 mm | 17 mm | 25 mm | 14 mm | 15 mm | 11 mm | 9 mm | 10 mm | – | 25 mm | 24 mm

Continued, compound first:

SMILES | MIC (Bacillus subtilis [1]) | zone of inhibition at 1250 µg/mL (Escherichia coli [2]) | zone of inhibition at 1250 µg/mL (Pseudomonas aeruginosa [3]) | zone of inhibition at 100 µg/mL (Bacillus subtilis [4]) | zone of inhibition at 100 µg/mL (Micrococcus luteus [5]) | zone of inhibition at 250 µg/mL (Penicillium chrysogenum [6]) | zone of inhibition at 250 µg/mL (Micrococcus luteus [7]) | zone of inhibition at 1000 µg/mL (Pseudomonas aeruginosa [8]) | zone of inhibition at 1250 µg/mL (Bacillus pumilus) | zone of inhibition at 500 µg/mL (Bacillus subtilis [9]) | zone of inhibition at 1250 µg/mL (Staphylococcus aureus [10]) | zone of inhibition at 500 µg/mL (Escherichia coli [11]) | zone of inhibition at 500 µg/mL (Micrococcus luteus [12]) | zone of inhibition at 100 µg/mL (Aspergillus niger [13]) | zone of inhibition at 100 µg/mL (Staphylococcus aureus [14]) | zone of inhibition at 1250 µg/mL (Aspergillus niger [15]) | zone of inhibition at 1000 µg/mL (Penicillium chrysogenum [16])
O=[N+]([O-])c1ccc(C2CC(c3cccc4ccccc34)=NN2)cc1 (configuration not stated) | 30 µg/mL (≈ 94.5 µM) | 18 mm | 15 mm | 10 mm | 9 mm | 9 mm | 10 mm | 13 mm | 22 mm | 13 mm | 16 mm | 11 mm | 11 mm | 8 mm | 9 mm | 18 mm | 15 mm
O=[N+]([O-])c1ccc(C2CC(c3cccc4ccccc34)=NN2c2ccc([N+](=O)[O-])cc2)cc1 (configuration not stated) | 50 µg/mL (≈ 114 µM) | 17 mm | 19 mm | 11 mm | – | 10 mm | 9 mm | 16 mm | 20 mm | 13 mm | 13 mm | 12 mm | 11 mm | 12 mm | – | 25 mm | 15 mm
NC(=S)N1N=C(c2cccc3ccccc23)CC1c1ccc([N+](=O)[O-])cc1 (configuration not stated) | 30 µg/mL (≈ 79.7 µM) | 18 mm | 22 mm | 9 mm | – | 11 mm | 9 mm | 19 mm | 21 mm | 12 mm | 14 mm | 11 mm | 11 mm | 10 mm | – | 26 mm | 21 mm
